Laboratory results: PubChem BioAssay (NCI)
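Five concentrations, 48 hours, 96-well plates. At the GI50, growth is halved. At the TGI there is no net growth.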

Tests used:
Test in all cases: NCI tumour cell line growth inhibition, 48 h
PC-3 prostate = test system: PC-3 prostate
U251 CNS = test system: U251 CNS
LOX IMVI melanoma = test system: LOX IMVI melanoma
EKVX NSCLC = test system: EKVX NSCLC
MDA-N = test system: MDA-N
OVCAR-5 ovarian = test system: OVCAR-5 ovarian
NCI/ADR-RES ovarian = test system: NCI/ADR-RES ovarian
M14 melanoma = test system: M14 melanoma

Structure (SMILES)	TGI (PC-3 prostate)	TGI (U251 CNS)	TGI (LOX IMVI melanoma)	TGI (EKVX NSCLC)	TGI (MDA-N)	TGI (OVCAR-5 ovarian)	TGI (NCI/ADR-RES ovarian)	TGI (M14 melanoma)	GI50 (M14 melanoma)
CC1N=C(c2ccccc2)OC1=O (stereo not given)	> 100 µM	> 100 µM	> 100 µM	> 100 µM	> 100 µM	> 100 µM	> 100 µM	> 100 µM	
C[C@]12CC[C@H](O)CC1=CC[C@@H]1[C@@H]2CC[C@]2(C)NC(=O)/C(=C\c3ccccc3)C[C@@H]12	29.5 µM	30.3 µM	42.5 µM	28.4 µM	69.8 µM	27.9 µM	53 µM	29.2 µM	
CN1N=C(c2ccccc2)c2cc(Cl)ccc2N=C1N/N=C/c1ccc(N(C)C)cc1	> 100 µM	> 100 µM		> 100 µM	> 100 µM		> 100 µM	> 100 µM	
Oc1cccc2ccc(Br)nc12	> 100 µM	> 100 µM	> 100 µM	> 100 µM	> 100 µM	> 100 µM	> 100 µM	> 100 µM	
Cc1ccc(S(=O)(=O)NNC(=O)Nc2ccc([N+](=O)[O-])cc2)cc1	> 100 µM	> 100 µM	> 100 µM	> 100 µM	> 100 µM	> 100 µM	> 100 µM	> 100 µM	
O=C(O)CCC(NC(=O)c1ccc(Oc2nc3ccccc3nc2-c2ccccc2)cc1)C(=O)O (stereo not given)	> 100 µM	> 100 µM	> 100 µM	> 100 µM	> 100 µM	> 100 µM	> 100 µM	> 100 µM	
O=C(O)CCC(NC(=O)c1ccc(CNc2nc3cc(C(F)(F)F)ccc3nc2C(=O)O)cc1)C(=O)O (stereo not given)	> 100 µM	> 100 µM	> 100 µM	> 100 µM	> 100 µM	> 100 µM	> 100 µM	> 100 µM	
CCOC(=O)/C(=C\c1c(C)[nH]c2ccccc12)P(=O)(OCC)OCC		> 100 µM	> 100 µM	> 100 µM	> 100 µM	> 100 µM	> 100 µM	> 100 µM	
Cc1ccc(O)c(C2=NNC(c3cccc(Cl)c3)C2)c1 (stereo not given)	> 100 µM	> 100 µM	> 100 µM	> 100 µM	88.1 µM	> 100 µM	> 100 µM	> 100 µM	
COC(=O)[C@@H]1[C@H]2CC[C@]3(C)[C@@H](OC(C)=O)CC[C@H]3[C@@H]2CC[C@H]1C(C)=O	> 100 µM	> 100 µM	> 100 µM	> 100 µM	> 100 µM	> 100 µM	> 100 µM	> 100 µM	
N#Cc1c(N)c2c(c(-c3ccccc3)c1-c1ccccc1)C(=O)N(O)C2=O	48.1 µM	> 100 µM	> 100 µM	> 100 µM	> 100 µM	> 100 µM	> 100 µM	> 100 µM	
COc1ccc(NC(/C(C(=O)C(=O)/C=C(\O)c2ccccc2)=C(\O)c2ccccc2)c2ccc(OC)cc2)cc1 (stereo not given)	> 100 µM	> 100 µM		50.9 µM		> 100 µM	> 100 µM	> 100 µM	
COC1(OC)C2C=CC1C([C@](C)(N)CO)C2 (stereo not given in full)	> 100 µM	> 100 µM		> 100 µM	> 100 µM	> 100 µM		> 100 µM	
O=C(NCCN(CCNC(=O)c1cccc(=O)n1O)CCNC(=O)c1cccc(=O)n1O)c1cccc(=O)n1O	> 100 µM	> 100 µM			> 100 µM	> 100 µM	> 100 µM	> 100 µM	
Cc1cc(S(=O)(=O)NC2=NCC(C)(C)CN2)c(S)cc1Cl	> 100 µM	89 µM	31.2 µM	> 100 µM	83.4 µM	51.1 µM	> 100 µM	> 100 µM	
CC(C)(C)OC(=O)C1/C(=C/CBr)CN1C(=O)OC(C)(C)C (stereo not given)	28.1 µM		11.4 µM	37.3 µM	29.7 µM	35.2 µM	72.1 µM	41.9 µM	
CC1(C)CCC[C@@]2(C)C1CC[C@@]1(CO1)[C@@H]2/C=C\C(C=O)CC=O (stereo not given in full)	> 100 µM	> 100 µM	> 100 µM	> 100 µM	> 100 µM	> 100 µM	> 100 µM	> 100 µM	
N#CC(C#N)=Cn1c(=S)[nH]c2ccc([N+](=O)[O-])cc21	> 100 µM	> 100 µM	> 100 µM	> 100 µM	> 100 µM	> 100 µM	> 100 µM	> 100 µM	
COC(=O)c1cc2c(cc1C(=O)OC)[C@@]1(C)CCCC(C)(C)C1CC2 (stereo not given in full)	51.1 µM	40.4 µM	36 µM	30.1 µM	78.8 µM	38.1 µM	40.8 µM	70.8 µM	
COc1cc2c(cc1O)C(=O)O[C@@H]1CC=C3CCN(C)[C@H]3[C@H]21	> 25 µM	> 25 µM		> 25 µM	> 25 µM	> 25 µM	> 25 µM	> 25 µM	
CN1CCN(Cc2ccccc2)CC1CC#N (stereo not given)		> 100 µM	> 100 µM	> 100 µM	> 100 µM	> 100 µM	> 100 µM		
CC(=O)OC(C)c1cc2c(s1)C(=O)c1ccsc1C2=O (stereo not given)	0.201 µM	1.11 µM	0.119 µM	2.74 µM	0.0544 µM	0.994 µM	0.992 µM	0.604 µM	
Cn1c(N)c(/C=C/C(=O)Oc2ccccc2)c(=O)n(C)c1=O	> 100 µM	> 100 µM	> 100 µM	> 100 µM	> 100 µM	> 100 µM	> 100 µM	> 100 µM	
CC1=NNC(=O)C1C1C=C(c2c[nH]c3ccccc23)OC1=O (stereo not given)	> 100 µM	> 100 µM	> 100 µM	> 100 µM	> 100 µM	> 100 µM	> 100 µM	> 100 µM	
COc1cc(C(=O)OC2CC34CCNC35CC(OC5(OC)C2O)c2cc3c(cc24)OCO3)ccc1O (stereo not given)	> 100 µM	> 100 µM	> 100 µM	> 100 µM	> 100 µM	> 100 µM	> 100 µM	> 100 µM	
COc1cc([C@@H]2c3cc4c(cc3[C@@H](NC(=O)NO)[C@H]3COC(=O)[C@H]23)OCO4)cc(OC)c1O	> 100 µM	> 100 µM	> 100 µM	> 100 µM	5.13 µM		93.1 µM	> 100 µM	37 µM
